Measurements from US20260374773A1, “MULTI-CYCLIC IRAK AND FLT3 INHIBITING COMPOUNDS AND USES THEREOF” (CHILDREN'S HOSPITAL MEDICAL CENTER, priority 2022, published 2026).

Experiments:
IRAK1 = IRAK1 (Homo sapiens, UniProt P51617); experiment: RBC HotSpot kinase inhibition assay, IRAK1; type: biochemical; conditions: isolated kinase, 33P-ATP, 2 h
Text: (§1) This assay uses the isolated kinase enzyme. This assay is very useful for determining competition of the inhibitor for ATP and/or substrates and for measuring the kinetics of enzyme inhibition. […] Unlike kinase binding assays that measure competition for ATP, the HotSpot Kinase Assay is a functional assay that measures catalytic activity; as such it measures relative functional potency regardless of the mechanism of enzyme inhibition. This assay uses the form of the various enzymes that are easiest to express, which may not necessarily be the form of the enzyme that exist in the cell. (Sometimes the carboxy terminus has been truncated to aid in expression, or, if it is a receptor kinase, the enzyme itself is isolated from the other parts of the receptor that are involved in regulating kinase activity.)
(§2) The reagent used was as follows: Base Reaction buffer; 20 mM Hepes (pH 7.5), 10 mM MgCl2, 1 mM EGTA, 0.01% Brij35, 0.02 mg/ml BSA, 0.1 mM Na3VO4, 2 mM DTT, 1% DMSO. Required cofactors were added individually to each kinase reaction.
(§3) The reaction procedure was as follows: • 1) Substrates were prepared in freshly prepared Reaction Buffer. • 2) Any required cofactors were delivered to the substrate solution above. • 3) Kinase was delivered into the substrate solution and gently mixed. • 4) Compounds were delivered in 100% DMSO into the kinase reaction mixture by Acoustic technology (Echo550; nanoliter range), followed by incubation for 20 min at room temp. • 5) ^33P-ATP was delivered into the reaction mixture to initiate the reaction. • 6) The mixture was incubated for 2 hours at room temperature. • 7) Kinase activity was detected by P81 filter-binding method.
as §1, with “Although not wishing to be limited by theory, it is believed that sometimes” for “(Sometimes”, “activity.” for “activity.)”
(§4) The reagent used was as follows: Base Reaction buffer; 20 mM Hepes (pH 7.5), 10 mM MgCl2, 1 mM EGTA, 0.01% Brij35, 0.02 mg/ml BSA, 0.1 mM Na3 VO4, 2 mM DTT, 1% DMSO.
(§5) Required cofactors were added individually to each kinase reaction.
as §3, with “33P-ATP” for “^33P-ATP”

MOLM14 D835Y cells = experiment: MOLM14 D835Y cell viability (Cell Titer Glo); type: cell-based; conditions: Homo sapiens
Procedure: Both cell lines have activated FLT3 receptors, each of which carry additional resistance mutations in the kinase domain (D835Y and F691L, respectively).
(§6) MOLM14 D835Y and MOLM14 F691L cells were grown in RPMI-1640 media supplemented with 20% fetal bovine serum (FBS). For viability/cytotoxicity assessments, cells were seeded into 1536-well white polystyrene tissue culture-treated Greiner plates using a Multidrop Combi dispenser (ThermoFisher), in final volume 5 μL of growth media per well, at a density of 1000 cells per well. After cell addition, 23 nL of test compound were transferred into individual wells (22 doses tested for each test compound, with a 1:2 dilution series starting at 10 μM) via a 1536 pin-tool. Bortezomib (final concentration 2.3 μM) was used as a positive control for cell cytotoxicity. Plates were incubated for 48 hours at standard incubator conditions covered by a stainless steel gasketed lid to prevent evaporation. 48 hours post compound addition, 3 μL of Cell Titer Glo (Promega) were added to each well and plates were incubated at room temperature for 15 minutes with the stainless-steel lid in place. Luminescence readings were taken using a Viewlux imager (PerkinElmer) with a 2 second exposure time per plate.
This cell line has activated FLT3 receptors, which carries an additional resistance mutation in the kinase domain at D835Y.
as §6, with “D835Y” for “D835Y and MOLM14 F691L”, “mL” for “μL”, “mM)” for “μM)”

FLT3 = molecular target: T1, FLT3 (Homo sapiens, UniProt P36888); experiment: RBC HotSpot kinase inhibition assay, FLT3; type: biochemical; conditions: isolated kinase, 33P-ATP, 2 h
T1 sequence (P36888 27-993): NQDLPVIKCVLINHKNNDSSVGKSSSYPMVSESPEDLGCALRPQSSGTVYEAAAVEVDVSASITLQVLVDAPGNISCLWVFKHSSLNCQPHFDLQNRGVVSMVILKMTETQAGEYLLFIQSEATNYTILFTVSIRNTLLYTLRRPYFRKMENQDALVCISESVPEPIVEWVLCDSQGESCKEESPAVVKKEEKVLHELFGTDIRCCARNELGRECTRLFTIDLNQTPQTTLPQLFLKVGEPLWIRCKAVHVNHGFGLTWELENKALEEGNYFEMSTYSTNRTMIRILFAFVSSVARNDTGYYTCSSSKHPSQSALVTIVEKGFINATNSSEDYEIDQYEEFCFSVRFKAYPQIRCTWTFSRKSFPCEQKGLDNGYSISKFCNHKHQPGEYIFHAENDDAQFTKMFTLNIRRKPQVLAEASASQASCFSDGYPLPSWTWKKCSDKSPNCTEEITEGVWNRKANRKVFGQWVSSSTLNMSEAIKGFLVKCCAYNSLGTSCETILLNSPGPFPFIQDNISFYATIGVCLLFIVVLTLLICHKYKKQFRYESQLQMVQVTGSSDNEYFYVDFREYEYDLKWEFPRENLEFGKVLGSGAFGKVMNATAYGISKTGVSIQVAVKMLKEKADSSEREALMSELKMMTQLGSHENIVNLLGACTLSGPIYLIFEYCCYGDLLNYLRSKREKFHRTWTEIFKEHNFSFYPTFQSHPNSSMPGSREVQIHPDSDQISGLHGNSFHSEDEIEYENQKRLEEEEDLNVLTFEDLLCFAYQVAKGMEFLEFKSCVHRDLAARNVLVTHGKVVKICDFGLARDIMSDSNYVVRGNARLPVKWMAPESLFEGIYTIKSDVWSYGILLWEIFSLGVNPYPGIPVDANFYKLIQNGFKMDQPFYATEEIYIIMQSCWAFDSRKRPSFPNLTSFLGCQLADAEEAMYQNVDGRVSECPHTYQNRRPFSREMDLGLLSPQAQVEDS
Text: as §1, §2, §3
as §1, with “Although not wishing to be limited by theory, it is believed that sometimes” for “(Sometimes”, “activity.” for “activity.)”
as §4, §5
as §3, with “33P-ATP” for “^33P-ATP”

IRAK4 = molecular target: T2, IRAK4 (Homo sapiens, UniProt Q9NWZ3); experiment: RBC HotSpot kinase inhibition assay, IRAK4; type: biochemical; conditions: isolated kinase, 33P-ATP, 2 h
T2 sequence (Q9NWZ3 1-460): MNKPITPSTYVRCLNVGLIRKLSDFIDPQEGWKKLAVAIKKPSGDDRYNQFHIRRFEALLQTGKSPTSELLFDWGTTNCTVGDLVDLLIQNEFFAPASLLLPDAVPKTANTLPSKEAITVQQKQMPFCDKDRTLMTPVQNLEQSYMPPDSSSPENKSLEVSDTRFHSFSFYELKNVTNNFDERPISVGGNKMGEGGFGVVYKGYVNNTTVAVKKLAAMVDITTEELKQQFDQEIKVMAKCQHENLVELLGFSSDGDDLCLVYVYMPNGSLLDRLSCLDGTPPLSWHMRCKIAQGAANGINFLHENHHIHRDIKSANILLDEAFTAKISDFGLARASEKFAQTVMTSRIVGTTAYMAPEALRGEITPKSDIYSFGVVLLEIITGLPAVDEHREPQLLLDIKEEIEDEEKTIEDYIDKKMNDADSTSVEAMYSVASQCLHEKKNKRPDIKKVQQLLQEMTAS
Text: as §1, §2, §3
as §1, with “Although not wishing to be limited by theory, it is believed that sometimes” for “(Sometimes”, “activity.” for “activity.)”
as §4, §5
as §3, with “33P-ATP” for “^33P-ATP”

Sequence of IRAK1 (P51617 whole entry, the tested form may be a part): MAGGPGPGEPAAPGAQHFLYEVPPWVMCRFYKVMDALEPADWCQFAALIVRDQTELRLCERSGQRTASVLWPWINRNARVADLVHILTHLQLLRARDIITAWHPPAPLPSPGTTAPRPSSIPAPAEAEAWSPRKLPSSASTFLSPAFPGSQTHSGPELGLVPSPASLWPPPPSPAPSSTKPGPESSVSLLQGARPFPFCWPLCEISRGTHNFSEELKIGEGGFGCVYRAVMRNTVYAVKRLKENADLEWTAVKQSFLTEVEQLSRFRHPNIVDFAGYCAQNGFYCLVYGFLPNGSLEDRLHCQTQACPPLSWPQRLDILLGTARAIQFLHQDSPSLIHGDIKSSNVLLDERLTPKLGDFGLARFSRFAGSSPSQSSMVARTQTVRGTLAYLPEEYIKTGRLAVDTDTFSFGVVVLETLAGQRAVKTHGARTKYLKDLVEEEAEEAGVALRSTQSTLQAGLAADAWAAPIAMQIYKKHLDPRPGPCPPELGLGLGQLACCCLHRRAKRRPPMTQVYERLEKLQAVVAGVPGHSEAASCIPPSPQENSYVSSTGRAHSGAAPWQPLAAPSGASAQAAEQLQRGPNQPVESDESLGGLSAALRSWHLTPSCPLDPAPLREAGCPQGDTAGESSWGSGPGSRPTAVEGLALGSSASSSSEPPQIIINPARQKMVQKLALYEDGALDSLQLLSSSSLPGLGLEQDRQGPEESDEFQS

IC50 (IRAK1; Table 17)	IC50 (MOLM14 D835Y cells; MOLM-14, Table 22, 48 h)	IC50 (FLT3; Table 17)	IC50 (IRAK4; Table 17)	IC50 (IRAK1; Table 11)	IC50 (FLT3; Table 11)	IC50 (IRAK4; Table 11)	IC50 (MOLM14 D835Y cells; MOLM-14, Table 16, 48 h)	Compound
162 nM	257 nM	2 nM	9 nM					COc1cn2ncc(-c3ccnc(N[C@H]4CNC[C@@H]4F)n3)c2nc1C(C)(C)O [Compound 1a, 2-(3-(2-(((3S,4S)-4-fluoropyrrolidin-3-yl)amino)pyrimidin-4-yl)-6-methoxypyrazolo[1,5-a]pyrimidin-5-yl)propan-2-ol]
				3510 nM	19 nM	295 nM		CC(C)Oc1cnc2c(-c3cccc(N[C@H]4CNC[C@@H]4F)n3)cnn2c1 [Compound 17, N-((3S,4S)-4-fluoropyrrolidin-3-yl)-6-(6-isopropoxypyrazolo[1,5-a]pyrimidin-3-yl)pyridin-2-amine]
				< 0.5 nM	< 0.5 nM	< 0.5 nM		COc1cn2ncc(-c3nc(N[C@@H]4CCCNC4)c(C#N)cc3F)c2nc1C1CC1 [Compound 8, (R)-6-(5-cyclopropyl-6-methoxypyrazolo[1,5-a]pyrimidin-3-yl)-5-fluoro-2-(piperidin-3-ylamino)nicotinonitrile]
				0.9 nM	< 0.5 nM	< 0.5 nM	9 nM	COc1cn2ncc(-c3nc(N[C@H]4CNC[C@@H]4F)ccc3F)c2nc1C1CC1 [Compound 1, 6-(5-cyclopropyl-6-methoxypyrazolo[1,5-a]pyrimidin-3-yl)-5-fluoro-N-((3S,4S)-4-fluoropyrrolidin-3-yl)pyridin-2-amine]
				4300 nM	4 nM	61 nM		FC(F)COc1cnc2c(-c3cccc(N[C@H]4CNC[C@@H]4F)n3)cnn2c1 [Compound 16, 6-(6-(2,2-difluoroethoxy)pyrazolo[1,5-a]pyrimidin-3-yl)-N-((3S,4S)-4-fluoropyrrolidin-3-yl)pyridin-2-amine]
				4 nM	< 0.5 nM	0.9 nM	36 nM	COc1cn2ncc(-c3ccc(F)c(N[C@H]4CNC[C@@H]4F)n3)c2nc1C1CC1 [Compound 4, 6-(5-cyclopropyl-6-methoxypyrazolo[1,5-a]pyrimidin-3-yl)-3-fluoro-N-((3S,4S)-4-fluoropyrrolidin-3-yl)pyridin-2-amine]
6 nM	81 nM	< 0.5 nM	0.7 nM					COc1cn2ncc(-c3cncc(N[C@H]4CNC[C@@H]4F)n3)c2nc1C1CC1 [Compound 10a, 6-(5-cyclopropyl-6-methoxypyrazolo[1,5-a]pyrimidin-3-yl)-N-((3S,4S)-4-fluoropyrrolidin-3-yl)pyrazin-2-amine]
				6220 nM	32 nM	491 nM		F[C@H]1CNC[C@@H]1Nc1cccc(-c2cnn3cc(Cl)cnc23)n1 [Compound 14, 6-(6-chloropyrazolo[1,5-a]pyrimidin-3-yl)-N-((3S,4S)-4-fluoropyrrolidin-3-yl)pyridin-2-amine]
				1290 nM	15 nM	267 nM		F[C@H]1CNC[C@@H]1Nc1cccc(-c2cnn3cc(C4CC4)cnc23)n1 [Compound 15, 6-(6-cyclopropylpyrazolo[1,5-a]pyrimidin-3-yl)-N-((3S,4S)-4-fluoropyrrolidin-3-yl)pyridin-2-amine]
				2320 nM	18 nM	72 nM		COc1cnc2c(-c3cccc(N[C@H]4CNC[C@@H]4F)n3)cnn2c1 [Compound 18, N-((3S,4S)-4-fluoropyrrolidin-3-yl)-6-(6-methoxypyrazolo[1,5-a]pyrimidin-3-yl)pyridin-2-amine]
				< 0.5 nM	< 0.5 nM	< 0.5 nM	5 nM	COc1cn2ncc(-c3nc(N[C@@H]4CCCNC4)c(F)cc3F)c2nc1C1CC1 [Compound 23, (R)-6-(5-cyclopropyl-6-methoxypyrazolo[1,5-a]pyrimidin-3-yl)-3,5-difluoro-N-(piperidin-3-yl)pyridin-2-amine]
